# Experimental data: ChEMBL document CHEMBL1201862, “PubChem BioAssay data set” (2004)
# Calls of active or inactive are those of the source.
# Tests used:
# cells = assay type: functional
# Protein skinhead-1 = target: T1, Protein skinhead-1 (Caenorhabditis elegans, UniProt P34707); assay type: functional
# T1 sequence (P34707 whole entry): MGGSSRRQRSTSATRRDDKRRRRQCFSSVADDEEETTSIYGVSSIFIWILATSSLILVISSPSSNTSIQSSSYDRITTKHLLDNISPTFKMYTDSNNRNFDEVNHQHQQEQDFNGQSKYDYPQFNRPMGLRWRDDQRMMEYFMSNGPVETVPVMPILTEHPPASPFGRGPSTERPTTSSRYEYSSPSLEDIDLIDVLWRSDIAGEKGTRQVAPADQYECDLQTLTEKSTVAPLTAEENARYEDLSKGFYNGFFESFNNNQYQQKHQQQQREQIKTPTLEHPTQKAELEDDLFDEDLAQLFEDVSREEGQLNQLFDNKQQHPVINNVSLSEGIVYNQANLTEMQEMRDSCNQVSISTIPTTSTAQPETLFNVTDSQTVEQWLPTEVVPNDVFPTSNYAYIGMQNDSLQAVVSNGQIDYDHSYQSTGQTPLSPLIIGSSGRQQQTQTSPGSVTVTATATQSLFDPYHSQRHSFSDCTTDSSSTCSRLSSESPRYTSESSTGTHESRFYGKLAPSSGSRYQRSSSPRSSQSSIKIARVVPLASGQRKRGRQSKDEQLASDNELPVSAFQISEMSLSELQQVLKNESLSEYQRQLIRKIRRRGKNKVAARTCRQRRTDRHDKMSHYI
# [1] = target: Eukaryotic translation initiation factor 4E (Mus musculus, UniProt P63073); assay: eIF4E–eIF4G protein interaction inhibitors, dose response, biochemical, TR-FRET (AID 855); assay type: functional;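 also: potency for disrupting eIF4E binding to eIF4GI seen as loss of FRET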
# [2] = target: T2, Corticotropin-releasing factor receptor 2/Corticotropin-releasing factor-binding protein (Homo sapiens, UniProt P24387+Q13324); assay: Dose Response confirmation of uHTS hits for small molecule antagonists of the CRF-binding protein and CRF-R2 receptor complex.; assay type: functional; details: read-out: IC50_Mean
# T2 sequence (Q13324 whole entry): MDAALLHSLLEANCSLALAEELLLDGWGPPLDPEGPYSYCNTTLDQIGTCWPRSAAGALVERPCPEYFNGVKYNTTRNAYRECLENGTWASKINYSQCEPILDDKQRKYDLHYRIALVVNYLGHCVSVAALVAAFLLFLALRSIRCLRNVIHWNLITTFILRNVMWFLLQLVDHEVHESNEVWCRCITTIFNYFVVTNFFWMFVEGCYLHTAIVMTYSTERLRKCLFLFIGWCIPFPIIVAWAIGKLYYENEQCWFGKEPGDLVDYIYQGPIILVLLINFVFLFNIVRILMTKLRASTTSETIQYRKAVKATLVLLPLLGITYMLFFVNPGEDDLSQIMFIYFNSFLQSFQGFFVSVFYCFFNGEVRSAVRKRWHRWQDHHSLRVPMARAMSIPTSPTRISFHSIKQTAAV
# T2 sequence (P24387 whole entry): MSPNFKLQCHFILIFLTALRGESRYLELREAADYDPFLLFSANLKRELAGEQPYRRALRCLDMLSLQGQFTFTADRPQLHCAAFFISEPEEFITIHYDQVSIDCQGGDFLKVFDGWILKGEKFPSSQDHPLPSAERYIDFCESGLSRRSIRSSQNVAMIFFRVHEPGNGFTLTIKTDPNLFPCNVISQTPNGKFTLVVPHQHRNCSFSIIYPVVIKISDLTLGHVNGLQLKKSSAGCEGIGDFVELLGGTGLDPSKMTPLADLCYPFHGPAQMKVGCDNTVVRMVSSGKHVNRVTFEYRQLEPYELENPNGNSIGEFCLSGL
# [3] = target: T2, Corticotropin-releasing factor receptor 2/Corticotropin-releasing factor-binding protein; assay: activators of CRF receptor 2 with binding protein – uHTS hits, confirmation (AID 602473); assay type: functional; details: read-out: EC50_Mean
# Large T antigen = Large T antigen (Simian virus 40, UniProt P03070); assay type: functional, Betapolyomavirus macacae;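 also: Confirmatory-stage PubChem screen for compounds that inhibit SV40 T antigen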
# [4] = target: FAD-linked sulfhydryl oxidase ALR (Homo sapiens, UniProt P55789); assay: inhibitors of human ALR sulfhydryl oxidase, dose response, biochemical, H2O2 detection, luminescence, cherry-pick (AID 493248)
# [5] = target: T3, Replicative DNA helicase DnaB (Mycobacterium tuberculosis, UniProt P9WMR3); assay: DnaB intein splicing inhibitors, dose response, biochemical, cell-free fluorescence (AID 449749); assay type: functional
# T3 sequence (P9WMR3 whole entry): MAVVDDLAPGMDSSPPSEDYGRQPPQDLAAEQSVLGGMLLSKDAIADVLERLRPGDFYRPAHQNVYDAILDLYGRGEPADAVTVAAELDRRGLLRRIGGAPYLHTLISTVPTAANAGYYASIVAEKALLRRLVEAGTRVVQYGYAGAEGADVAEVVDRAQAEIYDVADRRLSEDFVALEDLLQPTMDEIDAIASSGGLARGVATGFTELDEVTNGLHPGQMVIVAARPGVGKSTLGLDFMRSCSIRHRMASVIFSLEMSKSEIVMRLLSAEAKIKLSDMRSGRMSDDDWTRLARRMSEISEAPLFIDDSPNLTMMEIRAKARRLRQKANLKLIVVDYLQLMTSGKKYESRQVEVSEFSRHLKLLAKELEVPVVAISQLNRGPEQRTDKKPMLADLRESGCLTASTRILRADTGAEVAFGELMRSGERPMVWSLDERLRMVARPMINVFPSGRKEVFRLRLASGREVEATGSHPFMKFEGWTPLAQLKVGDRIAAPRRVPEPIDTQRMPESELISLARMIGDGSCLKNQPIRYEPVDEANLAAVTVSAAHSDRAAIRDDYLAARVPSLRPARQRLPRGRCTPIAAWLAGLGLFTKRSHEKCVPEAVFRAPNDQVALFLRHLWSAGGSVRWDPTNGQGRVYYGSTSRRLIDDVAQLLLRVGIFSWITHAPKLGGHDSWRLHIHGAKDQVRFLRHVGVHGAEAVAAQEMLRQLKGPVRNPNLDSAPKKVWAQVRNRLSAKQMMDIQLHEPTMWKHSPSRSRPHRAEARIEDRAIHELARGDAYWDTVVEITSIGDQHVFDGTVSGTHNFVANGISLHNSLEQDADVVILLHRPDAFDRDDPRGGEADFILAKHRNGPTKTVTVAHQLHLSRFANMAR
# Protein RecA = target: T4, Protein RecA (Mycobacterium tuberculosis, UniProt P9WHJ3); assay: Fluorescence Cell-Free Homogeneous Dose Retest to Identify Inhibitors of RecA-Intein Splicing Activity. [Related pubchem assays (depositor defined):AID2097, AID2223, AID489010, AID492950]; assay type: functional
# T4 sequence (P9WHJ3 whole entry): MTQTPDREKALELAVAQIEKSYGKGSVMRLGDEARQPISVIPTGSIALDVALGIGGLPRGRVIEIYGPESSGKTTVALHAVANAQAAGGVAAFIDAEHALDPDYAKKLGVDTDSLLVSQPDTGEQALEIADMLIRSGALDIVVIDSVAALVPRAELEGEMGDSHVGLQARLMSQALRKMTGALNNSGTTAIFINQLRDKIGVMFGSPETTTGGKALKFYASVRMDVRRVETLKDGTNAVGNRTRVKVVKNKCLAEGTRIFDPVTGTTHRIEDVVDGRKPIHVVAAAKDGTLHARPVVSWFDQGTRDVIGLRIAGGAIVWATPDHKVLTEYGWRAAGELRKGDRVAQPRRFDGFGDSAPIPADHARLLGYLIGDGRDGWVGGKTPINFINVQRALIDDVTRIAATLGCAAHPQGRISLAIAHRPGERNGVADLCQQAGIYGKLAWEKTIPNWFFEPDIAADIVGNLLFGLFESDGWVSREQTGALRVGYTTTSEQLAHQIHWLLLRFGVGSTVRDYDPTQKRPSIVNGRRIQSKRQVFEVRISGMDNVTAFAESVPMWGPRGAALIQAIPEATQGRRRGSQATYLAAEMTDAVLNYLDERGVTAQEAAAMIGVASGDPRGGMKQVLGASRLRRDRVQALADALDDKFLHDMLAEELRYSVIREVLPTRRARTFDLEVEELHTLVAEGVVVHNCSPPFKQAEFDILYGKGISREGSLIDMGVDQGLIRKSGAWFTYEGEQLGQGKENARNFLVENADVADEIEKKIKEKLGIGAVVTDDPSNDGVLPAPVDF
# H4 = assay: Luminescence Cell-Based Dose Response HTS to Identify Activators of 5'UTR Stem-Loop Driven Prion Protein mRNA Translation in H4 Neuroglioblastoma Cells. [Related pubchem assays: 1829 (Project Summary), 1814 (Primary HTS)]; assay type: functional; details: Homo sapiens
# [6] = Luminescence Cell-Based Dose Response HTS to Identify Activators of Luciferase Translation or Activity in H4 […] Cells. [Related pubchem assays: 1829 (Project Summary), 1814 (Primary HTS)]; assay type: functional
# [7] = target: T5, Rac GTPase-activating protein 1 (Homo sapiens, UniProt Q9H0H5); assay: MgcRacGAP GTPase-activating activity inhibitors, confirmation, biochemical, ADP Hunter fluorescence, primary and confirmatory (AID 624330); assay type: functional
# T5 sequence (Q9H0H5 whole entry): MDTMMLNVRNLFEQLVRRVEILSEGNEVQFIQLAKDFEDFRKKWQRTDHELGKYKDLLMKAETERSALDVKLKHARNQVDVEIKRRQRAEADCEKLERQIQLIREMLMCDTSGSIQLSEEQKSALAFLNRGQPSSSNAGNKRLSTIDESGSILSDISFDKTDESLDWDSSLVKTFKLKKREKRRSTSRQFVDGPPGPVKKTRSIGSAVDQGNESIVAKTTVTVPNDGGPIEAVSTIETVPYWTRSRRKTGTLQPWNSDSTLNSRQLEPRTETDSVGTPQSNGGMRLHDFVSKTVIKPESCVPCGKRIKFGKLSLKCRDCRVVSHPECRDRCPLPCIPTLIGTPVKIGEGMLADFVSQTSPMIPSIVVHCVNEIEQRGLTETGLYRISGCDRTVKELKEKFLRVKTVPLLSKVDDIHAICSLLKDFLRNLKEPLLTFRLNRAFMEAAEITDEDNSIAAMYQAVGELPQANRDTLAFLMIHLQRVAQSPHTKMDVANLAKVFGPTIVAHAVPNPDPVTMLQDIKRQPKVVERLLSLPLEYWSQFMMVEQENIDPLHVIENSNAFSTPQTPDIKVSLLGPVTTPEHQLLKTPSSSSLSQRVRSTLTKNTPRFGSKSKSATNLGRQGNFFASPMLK
# [8] = P. falciparum Dd2 growth inhibitors, dose response, SYBR Green, cherry-picked samples (AID 1159567); assay type: functional, cell-based
# Sequence of Eukaryotic translation initiation factor 4E (P63073 whole entry): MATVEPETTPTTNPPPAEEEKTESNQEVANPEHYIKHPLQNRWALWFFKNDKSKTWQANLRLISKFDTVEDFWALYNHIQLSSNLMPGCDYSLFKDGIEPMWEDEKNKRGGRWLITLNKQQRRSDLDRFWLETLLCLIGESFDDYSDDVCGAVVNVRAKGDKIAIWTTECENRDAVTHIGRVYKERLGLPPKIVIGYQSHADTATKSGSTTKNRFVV
# Sequence of Large T antigen (P03070 whole entry): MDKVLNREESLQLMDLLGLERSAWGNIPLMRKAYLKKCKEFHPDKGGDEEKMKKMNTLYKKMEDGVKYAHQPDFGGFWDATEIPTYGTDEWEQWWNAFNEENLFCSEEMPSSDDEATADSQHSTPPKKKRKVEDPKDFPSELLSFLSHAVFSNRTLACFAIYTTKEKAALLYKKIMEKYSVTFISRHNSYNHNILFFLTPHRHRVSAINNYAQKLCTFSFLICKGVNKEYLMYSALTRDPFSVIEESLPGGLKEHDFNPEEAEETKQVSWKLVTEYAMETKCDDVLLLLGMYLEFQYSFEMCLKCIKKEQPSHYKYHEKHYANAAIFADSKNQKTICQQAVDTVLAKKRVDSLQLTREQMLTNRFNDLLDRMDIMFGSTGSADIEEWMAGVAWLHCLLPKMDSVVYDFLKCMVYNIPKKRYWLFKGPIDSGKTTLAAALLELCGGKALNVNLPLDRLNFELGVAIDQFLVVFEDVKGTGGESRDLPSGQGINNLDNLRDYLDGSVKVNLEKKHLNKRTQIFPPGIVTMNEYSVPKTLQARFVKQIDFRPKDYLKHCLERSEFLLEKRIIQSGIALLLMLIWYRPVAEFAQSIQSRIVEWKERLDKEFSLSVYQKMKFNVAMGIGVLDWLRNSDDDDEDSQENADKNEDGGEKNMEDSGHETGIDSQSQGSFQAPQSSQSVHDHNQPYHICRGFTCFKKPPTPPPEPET
# Sequence of FAD-linked sulfhydryl oxidase ALR (P55789 whole entry): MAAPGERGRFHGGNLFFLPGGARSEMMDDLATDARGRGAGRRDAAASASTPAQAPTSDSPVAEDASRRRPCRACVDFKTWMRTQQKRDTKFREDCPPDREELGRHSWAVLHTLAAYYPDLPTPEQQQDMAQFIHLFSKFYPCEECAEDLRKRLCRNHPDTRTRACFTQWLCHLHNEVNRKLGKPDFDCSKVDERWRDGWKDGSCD
compound,measurement,setting,value
CN1CCC(O)(c2ccccc2)C(C(=O)c2ccccc2)C1 (stereo not drawn),IC50,cells,36.1 µM (active)
CCOC(=O)COc1ccc(C2CC(C)=NN2c2ccccc2)cc1 (stereo not drawn),IC50,cells,4.31 µM (active)
Cc1ccc2c([N+](=O)[O-])c(C)ccc2n1,IC50,Protein skinhead-1,> 100 µM (inactive)
O=C1CN(C(=O)c2cccs2)c2ccccc2N1,IC50,[1],> 64 µM (inactive)
CCOc1ccc(OCC)c(NC(=O)CSCC(=O)O)c1,IC50,Protein skinhead-1,> 100 µM (inactive)
CC1CN(C(=O)c2cccs2)CCN1C(=O)c1cccs1 (stereo not drawn),IC50,Protein skinhead-1,> 100 µM (inactive)
CCNc1nc(NC(C)CC)nc(Oc2ccc(OCC)nn2)n1 (stereo not drawn),IC50,[2],> 47.1 µM (inactive)
same,EC50,[3],> 53 µM (inactive)
COC(=O)CC(=O)N1CCN(c2ccc(Cl)c(Cl)c2)CC1,IC50,cells,25.5 µM (active)
CN(C)c1ccc(NC(=O)c2ccc(N3CCOCC3)nc2)cc1,IC50,Large T antigen,6.98 µM (active)
O=C(CSc1nnc(-c2ccccc2)n1C1CCCCC1)Nc1ccc(S(=O)(=O)Nc2ccccn2)cc1,IC50,[1],> 64 µM (inactive)
CCC(=O)c1ccc(OCC(=O)OCC(=O)c2cc(C)n(C3CC3)c2C)cc1,IC50,cells,9.8 µM (active)
CC(C)(C)n1nnnc1C(c1ccncc1)N1CCN(c2ccc(O)cc2)CC1 (stereo not drawn),AC50,[4],3.48 µM (active)
same,IC50,Large T antigen,13.9 µM (active)
Cc1ccc(S(=O)(=O)Cc2cc(F)c([N+](=O)[O-])cc2[N+](=O)[O-])cc1,AC50,[5],16.6 µM (active)
same,IC50,Large T antigen,4.86 µM (active)
same,EC50,Protein RecA,17.2 µM (active)
O=C(c1ccccc1)c1cnc2cc3c(cc2c1O)OCCO3,IC50,Protein skinhead-1,> 100 µM (inactive)
c1cc2c(nn1)CCc1nonc1-2,IC50,Protein skinhead-1,> 100 µM (inactive)
O=C(NCCN1C(=O)C2C3C=CC(C3)C2C1=O)Nc1ccccc1O (stereo not drawn),IC50,Protein skinhead-1,> 100 µM (inactive)
CCN(C(=O)c1ccco1)c1nc(-c2ccc(OC)cc2)cs1,IC50,Protein skinhead-1,> 100 µM (inactive)
Cc1cc(N2CCOCC2)n2nc(C)c(-c3ccccc3)c2n1,IC50,[1],> 64 µM (inactive)
CCNC(S)=Nc1cc(OCC)c(N2CCOCC2)cc1OCC,IC50,Large T antigen,> 100 µM (active)
CN(C)c1ccc(NC(=O)CSc2nc3c(c(=O)[nH]2)CCCC3)cc1,IC50,Large T antigen,5.87 µM (active)
CN1CCN(c2ccc(NC(=O)c3ccc(Oc4ccccc4)cc3)cc2)CC1,IC50,Protein skinhead-1,23.6 µM (active)
COc1cc(OC)cc(OC(=O)c2ccc3c(=O)n4c(nc3c2)CCC4)c1,IC50,cells,9.14 µM (active)
O=C(NCCO)c1cccc(-c2ccc3nncn3c2)c1,IC50,Protein skinhead-1,> 100 µM (inactive)
NC(=O)c1ccccc1/N=C/c1ccc2ccccc2c1,EC50,H4,0.197 µM (active)
same,EC50,[6],1.14 µM (active)
Sc1nnc(-c2ccco2)n1/N=C/c1ccc(Br)s1,IC50,[1],> 64 µM (inactive)
COc1cc(/C=N/Nc2nc(N3CCCC3)nc(N3CCCC3)n2)ccc1O,IC50,[7],64.3 µM (active)
same,IC50,Large T antigen,15.2 µM (active)
CCCNC(=O)Nc1ccc2c(c1)OC[C@@H](C)N(CC1CCCC1)C[C@@H](C)[C@H](OC)CN(C)C2=O,AC50,[8],6.1 µM (active)
